Laboratory results taken from BindingDB's records for PubMed 32222663 (n/a, 2020).

Target: T1, Heparanase (Homo sapiens, UniProt Q9Y251)
T1 sequence (Q9Y251 whole entry): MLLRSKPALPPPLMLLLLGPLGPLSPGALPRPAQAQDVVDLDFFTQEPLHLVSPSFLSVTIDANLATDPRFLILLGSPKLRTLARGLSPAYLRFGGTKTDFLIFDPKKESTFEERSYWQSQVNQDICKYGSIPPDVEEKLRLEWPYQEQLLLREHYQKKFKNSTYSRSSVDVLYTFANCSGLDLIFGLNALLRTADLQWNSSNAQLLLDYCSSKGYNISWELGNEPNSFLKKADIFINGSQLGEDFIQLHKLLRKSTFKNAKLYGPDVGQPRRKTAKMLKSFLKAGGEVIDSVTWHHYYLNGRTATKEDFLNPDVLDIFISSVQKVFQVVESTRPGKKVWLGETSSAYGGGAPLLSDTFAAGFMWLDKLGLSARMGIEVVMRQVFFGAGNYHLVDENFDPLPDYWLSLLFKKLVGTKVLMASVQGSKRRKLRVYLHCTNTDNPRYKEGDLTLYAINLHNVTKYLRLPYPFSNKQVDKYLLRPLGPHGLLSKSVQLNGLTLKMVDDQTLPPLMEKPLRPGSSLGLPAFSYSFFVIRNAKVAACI
Test: Inhibition of recombinant human heparanase incubated for 4 hrs by beta-scintillation counter analysis

An IC50 of 5 nM was found for O=S(=O)(O)OC[C@H]1O[C@H](O[C@H]2[C@H](OS(=O)(=O)O)[C@H](OS(=O)(=O)O)C(C3O[C@H](COS(=O)(=O)O)[C@@H](O[C@H]4O[C@H](COS(=O)(=O)O)[C@@H](O[C@H]5O[C@H](COS(=O)(=O)O)[C@@H](OS(=O)(=O)O)[C@H](OS(=O)(=O)O)[C@@H]5OS(=O)(=O)O)[C@H](OS(=O)(=O)O)[C@@H]4OS(=O)(=O)O)[C@H](OS(=O)(=O)O)[C@@H]3OS(=O)(=O)O)O[C@@H]2COS(=O)(=O)O)[C@@H](OS(=O)(=O)O)[C@@H](OS(=O)(=O)O)[C@@H]1O[C@H]1O[C@H](COS(=O)(=O)O)[C@@H](OS(=O)(=O)O)[C@H](OS(=O)(=O)O)[C@@H]1OS(=O)(=O)O (stereo partly specified) in this work.
